Measured values as given in US20100184675A1, “USE OF GLUCAGON (1-29) ALONE OR IN COMBINATION WITH NEUROPEPTIDE W30 AS A THERAPEUTIC AGENT” (priority 2007, published 2010).
Ends that are not written are not given here.

Assays:
HIV-1IIIB = test: HIV-1 antiviral assay in CEM-SS cells; conditions: peptides 10 micrograms per ml, 6 days post-infection
HCMV strain AD169 = test: HCMV plaque formation assay in MRC-5 cells; conditions: peptides 10 micrograms per ml, 7-10 days
[1] = test system: Primary Human endothelial cells (HUVEC); test: Endothelial cell migration assay; assay type: cell-based; conditions: 10 micrograms per ml; 22 hours
murine spleen cells = test: Th1/Th2 cytokine profiling assay (Ovalbumin-restimulated spleen cells); assay type: cell-based, Balb/c mice; conditions: 10 micrograms per ml; 72 hours; combination 0.95 mole peptide 1 and 1.05 mole peptide 2
Procedure: On day 50, spleens of the mice were harvested (3 weeks after last boost with Ovalbumin). Cells were cultured (2×10^5/well in triplicate) and incubated with culture medium or test peptides—10 micrograms per ml—for 30 min. Thereafter, additional Ovalbumin was added to the cells at 10 micrograms/ml for in vitro restimulation of the cells. 72 hours later, cell supernatants were harvested and assayed using the Becton Dickinson Mouse Th1/Th2 Cytokine CBA Kit.

[2] = test system: hepatitis B virus (HBV) ayw strain; test: HBV experimental assay system (HepG2-2.2.15, secreted HBV DNA by TaqMan PCR); assay type: cell-based; conditions: 10 micrograms per ml; 6 days; combination 0.95 mole peptide 1 and 1.05 mole peptide 2
Procedure: HepG2-2.2.15 cells were plated in 96-well microtiter plates. After 16-24 hours the confluent monolayer of HepG2-2.2.15 cells was washed and the medium was replaced with complete medium containing test peptides—10 micrograms per ml—in duplicate. Lamivudine (3TC) was used as the positive control, while media alone was added to the cells as a negative control (virus control). Three days later the culture medium was replaced with fresh medium containing the peptides. Six days following the initial administration of the peptides, the cell culture supernatants was collected, treated with pronase and DNAse and then used in a real-time quantitative TaqMan PCR assay. The PCR-amplified HBV DNA was detected in real-time by monitoring increases in fluorescence signals that result from the exonucleolytic degradation of a quenched fluorescence probe molecule that hybridizes to the amplified HBV DNA. For each PCR amplification, a standard curve was simultaneously generated using dilutions of purified HBV DNA. Antiviral activity was calculated from the reduction in HBV DNA levels (% virus control). A novel dye uptake assay was then employed to measure cell viability, which is used to calculate toxicity (% cell control).

HUVEC = test: Endothelial tube formation assay; assay type: cell-based, human; conditions: 10 micrograms per ml; 20 hours
Procedure: The endothelial tube formation assay is based on the ability of endothelial cells to form three-dimensional capillary-like tubular structures when cultured on a gel of basement membrane extract. […] Pre-labeled HUVEC with Calcein AM were seeded in a 96-well culture plate coated with extracellular metrix (Chemicon international Cat. […] Positive control was vehicle only. […] Duplicate wells for each treatment were photographed and quantitatevily analyzed for an average tubule length using image analysis software ImageProPlus. Raw data were expressed as average tubule lengths in pixels ±standard deviation. Statistic p values were computed using the Student's t-test.

Compound: Cc1cn([C@H]2C[C@H](N=[N+]=[N-])[C@@H](CO)O2)c(=O)[nH]c1=O [AZT]
- inhibition of HIV-1 activity on tested T-cells (HIV-1IIIB): expected levels of antiviral activity

Compound: CC(C)(C)NC(=O)[C@@H]1CN(Cc2cccnc2)CCN1C[C@@H](O)C[C@@H](Cc1ccccc1)C(=O)N[C@H]1c2ccccc2C[C@H]1O [indinavir]
- inhibition of HIV-1 activity on tested T-cells (HIV-1IIIB): expected levels of antiviral activity

Compound: Nc1nc(O)c2ncn(COC(CO)CO)c2n1 [Ganciclovir, reference compound]
- inhibition of HCMV plaque formation as compared to the virus control (HCMV strain AD169): expected levels of antiviral activity

Compound: Trp-Tyr-Lys-His-Val-Ala-Ser-Pro-Arg-Tyr-His-Thr-Val-Gly-Arg-Ala-Ala-Gly-Leu-Leu-Met-Gly-Leu-Arg-Arg-Ser-Pro-Tyr-Leu-Trp-OH (WYKHVASPRYHTVGRAAGLLMGLRRSPYLW-OH) [Peptide 2, Neuropeptide W-30, commercially available known peptide]
- inhibition of the migration of human endothelial cells [1]: 17%
- change of the production of IFN-γ (figure = decreased by) (murine spleen cells): 25.5%
- change of the production of IL-2 (figures = increased by) (murine spleen cells): 82.1%
- change of the production of IL-4 (figure = induced by) (murine spleen cells): did not significantly change
- change of the production of IL-5 (figures = decreased by) (murine spleen cells): 29.3%
- change of the production of TNF-alpha (murine spleen cells): did not significantly change
- inhibition of HBV replication as compared to the virus control infection [2]: 10.7%
- inhibition of HCMV plaque formation as compared to the virus control (HCMV strain AD169): did not inhibit
- inhibition of the tube formation of human endothelial cells (HUVEC): 16%
